The values that follow come from article PMC9147274 (Pharmaceuticals, 2022).

One series has as its system HepG2. Description: Cytotoxicity toward HepG2, MTT assay. As to conditions: read-out: Cytotoxicity HepG2 IC50; HepG2, MTT, 72 h. (In general: Formazan colour is commonly taken as a measure of viable cells.)
The test system of a further series is HuCCA-1. The series can be described thus: Cytotoxicity toward HuCCA-1, MTT assay. Format: cell-based, human. The following applies: Homo sapiens, HuCC-A1; HuCCA-1, MTT, 48 h. As for the experimental part:
(§1) DMSO was used as vehicle control. […] All experiments were performed in triplicate. […] Cells were exposed for 48 h.
(§2) Table S1 The cytotoxicity of triazole-cored derivatives toward various human lung carcinoma cell lines A549, Thai human cholangiocarcinoma cells HuCCA-1, T-cell acute lymphoblastic leukemia MOLT-3, and acute promyelocytic leukemia HL-60. The inhibitory activities were indicated as IC50 in micromolar scale (µM). The calculated selectivity indices (SI) were reported in square brackets.
(§3) Cancer Cell lines, IC50 (µM), [SI]

A further series has as its system HL-60. The series can be described thus: Cytotoxicity toward HL-60, XTT assay. Format: cell-based, human. As to conditions: Homo sapiens; HL-60, XTT, 48 h. As for the experimental part:
as §1, §2, §3

Series [1] concerns HepG2 cells. Description: Cell-cycle analysis (propidium iodide, flow cytometry). Format: cell-based, human. As to conditions: HepG2, 2 µM, 72 h. A general note: In flow cytometry, cells or beads pass a laser one at a time.
Protocol: The concentration of DMSO was kept at 0.5% v/v for all conditions. Cells were washed with PBS before they were harvested; 1 × 10^5 Cells were collected and fixed with 70% ice-cold ethanol, and then washed twice with ice-cold PBS. Afterward, the cells were treated with 100 g/mL of DNase-free RNase A (Sigma-Aldrich, St. Louis, MO, USA) in PBS containing 0.1% v/v Triton-X 100 (Sigma-Aldrich, St. Louis, MO, USA) for 5 min at room temperature and then stained with 20 g/mL propidium iodide (Life Technologies, Carlsbad, CA, USA) in PBS containing 0.1% v/v Triton-X 100 for 15 min at room temperature while protected from light. Cell-cycle distribution was then analyzed with a flow cytometer (Attune NxT, Thermo Fischer Scientific, Waltham, MA, USA). Data were analyzed with Attune NxT Software (Thermo Fischer Scientific, Waltham, MA, USA). All experiments were performed in triplicate. Student’s t-test was used for statistical analysis; p < 0.05 was considered statistically significant [96].
The subject of series [2] is HepG2 cells. Description: Detection of apoptosis (Muse Annexin V & Dead Cell Kit). Format: cell-based, human. As to conditions: 48 h; for average percentage of apoptotic cells (total, early and late apoptosis): untreated 22.35 ± 0.07%. On the procedure: Based on annexin V reactivity and the intensity of the 7-AAD fluorescence, cells can be classified into four categories: dead, live, early apoptosis, and late apoptosis. […] The detection of apoptosis was performed by the Muse® Annexin V & Dead Cell Kit according to the manufacturer’s protocol (Millipore, Billerica, MA, USA). […] An amount of 100 µL of HepG2 cells in suspension and 100 µL of Muse Annexin V & Dead Cell reagent were added to a 1.5 mL tube. The apoptosis was measured using the Muse cell analyzer and Muse analysis software (Millipore, Billerica, MA, USA). Cells were classified into four groups: live (Annexin V− and 7-AAD−), early apoptosis (Annexin V+ and 7-AAD−), late apoptosis (Annexin V+ and 7-AAD+), and dead or necrotic (Annexin V− and 7-AAD+). The apoptosis experiment was performed in duplicate.

In the next series the test system is A549. Description: Cytotoxicity toward A549, MTT assay. Format: cell-based, human. The following applies: Homo sapiens; A549, MTT, 48 h. As for the experimental part: as §1, §2, §3
Series [3] deals with HepG2 cells. The series can be described thus: Cell morphology by light microscopy. As to conditions: 48 h, 2.5-10.0 µM.
A short description of series [4]: Cytotoxicity toward MRC-5, MTT assay. As to conditions: human, MRC-5 cells, MRC-5 normal cells. Format: cell-based. As for the experimental part:
as §1

For series [5] the following is noted: cited from earlier work.

Molecules are shown by their SMILES.

As usually defined, the IC50 is the concentration at which inhibition is half-maximal. `CNC(=O)c1cc(Oc2ccc(NC(=O)Nc3ccc(Cl)c(C(F)(F)F)c3)cc2)ccn1` [Sorafenib]: the IC50 in the series with HepG2 stood at 5.97 ± 0.71 µM; with HuCCA-1, 33.2 ± 1.45 µM; in the series with HL-60, 5.35 ± 0.38 µM; with A549, 19.65 ± 0.01 µM. The “Effect on cell cycle” value in the series with HepG2 cells [1] is “induced S and G2/M phase cell-cycle arrest”. Moreover, the “Late Apop./Dead (late stage apoptotic cells)” value is given as 7.60% in the series with HepG2 cells [2] (HepG2, 2.5 µM) and 13.65% with HepG2 cells [2] (HepG2, 10.0 µM). In addition, the “average percentage of apoptotic cells (total, early and late apoptosis)” value is 24.55 ± 0.28% in the series with HepG2 cells [2] (HepG2, 2.5 µM) and 46.45 ± 0.78% in the series on HepG2 cells [2] (HepG2, 10.0 µM). Further, the “Cell morphology changes of HepG2” value in the series on HepG2 cells [3] was “cell morphology changes (shrink and smaller in size) were observed after treating HepG2 with Sorafenib at 5.0 µM and 10.0 µM”. The compound further had an IC50 at 48 h in series [4] of 19.7 ± 1.68 µM. The bioavailability in series [5] was 38–49%.
